In assay [1] the test system is TICAE cells. Kind of assay: Intracellular ROS, CM-H2DCFDA flow cytometry, TICAE cells. The format is cell-based, human. The settings on record: 100 μM TAT-Gap19, 0.1 Gy, 45 min. As for the experimental part:
TICAE and TIME cells were seeded in a 6-well plate at a density of 250000 cells/well. Three days later, cells reached 100% confluence. At 30 minutes before X-ray exposure (0.1 and 5 Gy), cells were washed with PBS to remove traces of the original medium. Afterwards, HMS supplemented with 25 mM HEPES (Sigma-Aldrich Co. LCC, Diegem, Belgium) and 10 μmol/L of the CM-H2DCFDA dye (Sigma-Aldrich Co. LCC, Diegem, Belgium) was added to the cells, and 100 μM TAT-Gap19 (Genosphere Biotechnologies, Paris, France) was added to block the Cx43 hemichannels. After irradiation, cells were washed with PBS and a 0.05% trypsin solution supplemented with 0.02% EDTA was used to detach the cells, followed by a 5 minute incubation time (37° C., 5% CO2). After trypsinization, the cells were transferred into a 1.5 mL tube and centrifuged for […] at 200 RCF. The supernatant was discard and the pellet was re-suspended in MSS without Ca2+ and Mg2+(Sigma-Aldrich Co. LCC, Diegem, Belgium). Finally, 1 μg/mL PI was added to each sample to exclude the dead cells. A positive control, 20 μmol/L tert-butyl hydroxyperoxide (tBHP), was added to the cells and incubated for 15 min. Intracellular ROS was assessed by analyzing the fluorescent signals using BD Accuri™ c6 Flow Cytometry (BD Biosciences, San Jose, Calif. USA). At least 10 000 events were measured. […]
(In general: Flow cytometry measures light scatter and fluorescence of single cells or particles in a stream.)

For assay [2], the target named is hemichannels composed of Cx43 (Homo sapiens, UniProt P17302). The following applies: cited from earlier work.
Sequence of hemichannels composed of Cx43 (P17302 whole entry): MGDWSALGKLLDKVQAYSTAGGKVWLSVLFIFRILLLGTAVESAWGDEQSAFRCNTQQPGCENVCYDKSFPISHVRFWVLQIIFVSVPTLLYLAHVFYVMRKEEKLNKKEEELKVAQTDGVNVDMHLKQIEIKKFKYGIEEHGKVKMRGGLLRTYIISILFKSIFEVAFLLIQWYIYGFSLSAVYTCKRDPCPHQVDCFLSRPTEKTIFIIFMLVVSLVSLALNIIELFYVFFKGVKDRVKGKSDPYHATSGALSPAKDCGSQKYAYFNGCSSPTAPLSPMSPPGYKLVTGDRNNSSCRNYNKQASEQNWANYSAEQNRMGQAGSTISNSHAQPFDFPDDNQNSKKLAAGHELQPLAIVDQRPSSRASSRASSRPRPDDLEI
Assay [3] concerns non-alcoholic fatty liver mouse model. The following applies: cited from earlier work.
A further assay concerns the target T1, Cx43 hemichannels (Homo sapiens, UniProt P17302).
T1 construct: endogenous in cells; host or cells: TICAE and TIME cells (human endothelial cell lines)
Kind of assay: Propidium iodide dye uptake assay after irradiation, TIME cells. The format is cell-based. The source says: Hemichannel opening was also investigated by dye uptake studies making use of the hemichannel permeable fluorescent tracer propidium iodide (PI; MW 668.4 Da). In addition, dextran fluorescein 10 kDa dye was used to assess membrane integrity and occurrence of cell death. PI stains cells with open hemichannels, late apoptotic and necrotic cells, while dextran fluorescein only stains late apoptotic and necrotic cells. Therefore, PI-positive and dextran fluorescein-negative cells are a measure for hemichannel opening while dextran fluorescein-positive cells are a measure for dead cells.
TICAE and TIME cells were seeded in a 24-well plate at a density of 1.25×10^5 and 1.5×10^5 cells/well, respectively, in six biological replicates. Three days later, cells reached 100% confluence. Thirty minutes before irradiation, cells were refreshed with 1 ml medium alone or with medium supplemented with 100 μM TAT-Gap19 (Genosphere Biotechnologies, Paris, France). For fractionated irradiation, cells were refreshed with 1.5 ml medium/well. […] Finally, the fluorescence was measured using an IncuCyte ZOOM® system (Essen BioScience, Ann Arbor, Mich., USA) by using different channels (TRITC, FITC and phase contrast) and a 10× objective Fluorescence signal was normalized to cell number.

The next assay has as its system mice liver. The following applies: mice treated with thioacetamide to induce liver fibrosis; cited from earlier work.
Assay [4] deals with TICAE cells. Kind of assay: DNA damage, gamma H2AX and TP53BP1 foci, TICAE cells. The assay is classed as cell-based, human. The following applies: 100 μM TAT-Gap19, 0.1 and 5 Gy, 1 h p.i. As for the experimental part:
To detect DNA double strand breaks after IR, TICAE and TIME cells were seeded in Nunc™ Lab-Tek™ Chamber Slide (Thermo Fisher Scientific, Asse, Belgium) in 8 replicates, at seeding density of 50 000 cells/well. Two days later, cells reached 100% confluence. At 30 min before IR, a fresh medium was added to the cells with or without 100 μM TAT-Gap19. At 1 h post irradiation, cells were fixed with 2% PFA (Sigma-Aldrich Co. LCC, Diegem, Belgium) and permeabilized with 0.25% Triton X-100 (Sigma-Aldrich Co. LCC, Diegem, Belgium) in PBS. Cells were blocked for 1 h in 1% normal goat serum (Thermo Fisher Scientific, Asse, Belgium) in Tris-NaCl (Perkin Elmer, Brussels, Belgium). Thereafter, staining with 1/300 primary anti-gamma H2AX antibody (Merck-Millipore #05-636) and 1/1000 anti-TP53BP1 antibody (Novus Biologicals #NB100-304) was performed for 1 h at 37° C. After washing 3 times with PBS, secondary Alexa Fluor 488 and 568 antibodies (Life Technologies, Merelbeke, Belgium) were applied for 1 h at 37° C. Finally, the slides were mounted using ProLong Diamond Antifade Mountant with DAPI (Life Technologies, Merelbeke, Belgium), and cells were visualized with an Eclipse Ti automated inverted wide-field epifluorescence microscope (Nikon, Brussels, Belgium) equipped with a 20×Plan Fluor objective (NA 0.6) and an Andor Ixon EMCCD camera, controlled by the MS Elements software. […]

T1 sequence (P17302 whole entry): as above

Take “TAT-Gap19: connexin mimetic peptide, amino-acids 128-136 of the CL of Cx43 (SEQ ID NO: 2), Gap19 linked to TAT sequence; Cx43 hemichannel inhibitor (YGRKKRRQRRRKQIEIKKFK)”: in the assay with TICAE cells [1], the “intracellular ROS generation (flow cytometry)” value was “significantly reduced intracellular ROS generation”. In assay [2], the “half-time of Cx43 hemichannel block” value is reported as 100 s. Also, in assay [3], the IL-1B result is recorded as “significantly decrease”. Moreover, the TNF-α entry in assay [3] was “significantly decrease”. Moreover, the “radiation-induced PI dye uptake” value was “had no effect” with Cx43 hemichannels (100 μM TAT-Gap19, fractionated 5 Gy, 72 h); “most clear and significant at the 72 h p.i. time point” in the assay with Cx43 hemichannels (100 μM TAT-Gap19, single irradiation, 72 h p.i.). The “SOD activity in liver” value in the assay on mice liver was “increased SOD activity”. The “gamma H2AX, TP53BP1 and colocalized foci (radiation-induced DNA damage)” value in the assay with TICAE cells [4] is on record as “not affected”.

The values are drawn from patent publication US20200384072A1, “THERAPY OF IONIZING RADIATION-INDUCED DISORDERS” (SCK-CEN, priority 2019, published 2020).
